Test results taken from patent publication US20070049559A1, “Preparations comprising arylazine substituted with a carbonylic moiety to increase the activity of Gelatinase A in ocular cells” (priority 2005, published 2007).

System: MT-MMP
Test: Thiopeptolide assay of cell-associated gelatinase activity ascribed to MT-MMP in TM cells
Type: cell-based, Rhesus monkey
Details: benzathine (as diacetate salt) combined with an equal weight of test compound in the incubation medium
Protocol: Unless specifically noted, all molecules tested were prepared as stock solutions in dimethyl sulfoxide (DMSO) with a final concentration of 10 mg/ml. The stocks were stored in a dessicator at −20 degrees Celsius. In testing the molecules, the molecules were diluted to final concentrations of 0.3 ug/ml and 15 ug/ml in a simplified culture medium based on Ames' medium, called Concanavalin A (Con A) conditioning medium (CACM). The monkey TM cells were incubated with the test molecules for 48 hours.
Control medium of CACM plus DMSO and a positive control with 5 ug/ml Con A plus DMSO were run in parallel. […]
At the end of the incubation period, by means of a spectrophoto-metric plate reader, the optical density (OD) at 410 nm was determined for each well after automatic subtraction of a blank value for a well containing reaction mixture but without cells. The average OD at the two-hour end point for each test molecule at all concentrations in triplicate was calculated. […] As an alternate to the end point OD reading, one may use the mean rate of appearance of the reaction product (mean V), calculated from the best linear fit of the data to absorbance vs. time. […]

## O=C(O)c1cc(O)c2ccccc2n1 [Kynurenic Acid, kynurenic acid]
  MT-MMP activity in combination with benzathine: evince MT-MMP activity
